This note sets out measurements from ChEMBL document CHEMBL2074095, “Molecular cloning of PEPT 2, a new member of the H+/peptide cotransporter family, from human kidney” (Biochim Biophys Acta, 1995).

Assay type in all cases: functional, cell-based
Holding throughout (parameters): scale not given: the % may be the effect or the level left

Assay [1] addresses T1, Solute carrier family 15 member 2 (Homo sapiens) (UniProt Q16348).
T1 sequence (whole entry): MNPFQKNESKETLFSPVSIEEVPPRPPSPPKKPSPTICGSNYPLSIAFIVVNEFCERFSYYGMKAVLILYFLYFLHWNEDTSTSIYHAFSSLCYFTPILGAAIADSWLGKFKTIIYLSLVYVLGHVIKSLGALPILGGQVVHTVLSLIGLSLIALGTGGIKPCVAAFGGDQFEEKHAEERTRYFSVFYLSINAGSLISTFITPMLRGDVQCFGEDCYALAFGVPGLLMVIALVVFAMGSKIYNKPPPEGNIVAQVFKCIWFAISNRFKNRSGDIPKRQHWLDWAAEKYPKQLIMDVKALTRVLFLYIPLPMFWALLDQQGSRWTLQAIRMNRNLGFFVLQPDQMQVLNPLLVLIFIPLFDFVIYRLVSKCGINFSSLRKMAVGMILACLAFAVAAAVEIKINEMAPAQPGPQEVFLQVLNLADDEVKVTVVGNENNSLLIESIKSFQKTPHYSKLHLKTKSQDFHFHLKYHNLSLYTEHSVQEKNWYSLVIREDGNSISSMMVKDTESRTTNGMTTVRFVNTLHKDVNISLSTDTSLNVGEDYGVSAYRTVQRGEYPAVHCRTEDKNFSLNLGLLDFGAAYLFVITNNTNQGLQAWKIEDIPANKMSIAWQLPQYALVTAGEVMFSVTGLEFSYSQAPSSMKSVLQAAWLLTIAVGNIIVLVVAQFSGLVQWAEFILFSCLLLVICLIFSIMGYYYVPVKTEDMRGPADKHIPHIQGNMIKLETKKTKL
Briefly: TP_TRANSPORTER: inhibition of Gly-Sar uptake (Gly-Sar: 30 uM, Cephadroxil: 10000 uM) in PEPT2-expressing HeLa cells.

Assay [2] has as its target T1, Solute carrier family 15 member 2 (Homo sapiens). As to the kind of experiment: TP_TRANSPORTER: inhibition of Gly-Sar uptake (Gly-Sar: 30 uM, Cephalexin: 10000 uM) in PEPT2-expressing HeLa cells.
Assay [3] shares this target. As to the kind of experiment: TP_TRANSPORTER: inhibition of Gly-Sar uptake (Gly-Sar: 30 uM, Ala-Gly-Pro: 10000 uM) in PEPT2-expressing HeLa cells.
Assay [4] has the same target. As to the kind of experiment: TP_TRANSPORTER: inhibition of Gly-Sar uptake (Gly-Sar: 30 uM, Gly-Phe: 10000 uM) in PEPT2-expressing HeLa cells.

Structures are written as SMILES. Residues, ends and D or L forms follow the SMILES beside them.

Turning to `CC1=C(C(=O)O)N2C(=O)[C@@H](NC(=O)[C@H](N)c3ccc(O)cc3)[C@H]2SC1`, the Activity in assay [1] was 0%.
As for `CC1=C(C(=O)O)N2C(=O)[C@@H](NC(=O)[C@H](N)c3ccccc3)[C@H]2SC1`, in assay [2], the Activity was 0%.
For the compound `C[C@H](N)C(=O)NCC(=O)N1CCC[C@H]1C(=O)O` (H-Ala-Gly-Pro-OH), the Activity in assay [3] was 0%.
Turning to `NCC(=O)N[C@@H](Cc1ccccc1)C(=O)O` (H-Gly-Phe-OH), the Activity in assay [4] is 0%.
